Laboratory results from ChEMBL document CHEMBL1201862, “PubChem BioAssay data set” (2004).
Activity calls are given as the source filed them.

Key:
[1] = molecular target: Glyceraldehyde-3-phosphate dehydrogenase (Homo sapiens, UniProt P04406)
Bcl-2-related protein A1 [2] = molecular target: T1, Bcl-2-related protein A1 (Mus musculus, UniProt Q07440); experiment: small-molecule antagonists of Bfl-1/BH3 interaction – biochemical, TR-FRET, mouse Bfl-1, confirmation (AID 621);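 further: TR-FRET binding of GST-Bfl-1 to FITC-labelled Bid peptide via terbium antibody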
T1 sequence (Q07440 whole entry): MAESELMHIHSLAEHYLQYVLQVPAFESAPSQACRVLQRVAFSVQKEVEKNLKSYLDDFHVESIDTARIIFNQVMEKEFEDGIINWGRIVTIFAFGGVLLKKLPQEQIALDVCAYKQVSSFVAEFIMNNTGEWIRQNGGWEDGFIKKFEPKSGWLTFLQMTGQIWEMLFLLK

Bcl-2-related protein A1 [3] = molecular target: T1, Bcl-2-related protein A1; experiment: Bfl-1 binding inhibitors, SAR follow-up, biochemical, fluorescence polarization (AID 1070)
[4] = HIV-1 Vif–A3G interaction blockers – biochemical, TR-FRET, GST-Vif 1-94, biotin-A3G peptide, dose response retest, primary screen (AID 1117319); assay type: functional;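 further: TR-FRET signal of purified GST-Vif binding a biotinylated A3G peptide; inhibitors lower the FRET signal by blocking Vif and A3G binding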
[5] = Trypanosoma cruzi growth suppression in host cells – NIH3T3 host cells, beta-gal luminescence, confirmation (AID 2044); assay type: functional, cell-based;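 further: intracellular parasites grown in NIH/3T3 mouse fibroblasts as host cells; luminescent beta-galactosidase reporter signal from transgenic T. cruzi replicating inside host cells; inhibitors lower the luminescence signal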
INS1 = experiment: INS-1E survival protection against cytokine death – cell-based, luminescence, retest, dose response (AID 449756); assay type: functional; conditions: Rattus norvegicus;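 further: cell death triggered by IL-1 beta plus TNF-alpha plus IFN-gamma mixture; protective hits raise ATP signal compared with cytokine alone wells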
[6] = microbe, parasite or virus in culture; assay type: functional; conditions: Mycobacterium tuberculosis
[7] = NIH3T3 cell viability loss – ATP luminescence, mouse fibroblasts, counter-screen, dose response (AID 2010); assay type: functional, cell-based;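 further: cells exposed to compound for about 90 hours before reading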
[8] = NIH-3T3 fibroblast cytotoxicity, dose response, cytotoxicity control, cell-based, fluorescence, Alamar Blue, secondary assay (AID 2327); assay type: functional;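 further: NIH-3T3 mouse fibroblasts cultured with fluconazole at 8 µg/mL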
[9] = molecular target: T2, Microphthalmia-associated transcription factor (Homo sapiens, UniProt O75030); experiment: reducers of TRPM1 reporter luminescence, concentration series – cell-based, SK-MEL-5, cherry-picked, set 3, MITF inhibitor project, dose response (AID 493073); assay type: functional;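 further: SK-MEL-5 melanoma cells with luciferase driven by the MITF target TRPM1 promoter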
T2 sequence (O75030 whole entry): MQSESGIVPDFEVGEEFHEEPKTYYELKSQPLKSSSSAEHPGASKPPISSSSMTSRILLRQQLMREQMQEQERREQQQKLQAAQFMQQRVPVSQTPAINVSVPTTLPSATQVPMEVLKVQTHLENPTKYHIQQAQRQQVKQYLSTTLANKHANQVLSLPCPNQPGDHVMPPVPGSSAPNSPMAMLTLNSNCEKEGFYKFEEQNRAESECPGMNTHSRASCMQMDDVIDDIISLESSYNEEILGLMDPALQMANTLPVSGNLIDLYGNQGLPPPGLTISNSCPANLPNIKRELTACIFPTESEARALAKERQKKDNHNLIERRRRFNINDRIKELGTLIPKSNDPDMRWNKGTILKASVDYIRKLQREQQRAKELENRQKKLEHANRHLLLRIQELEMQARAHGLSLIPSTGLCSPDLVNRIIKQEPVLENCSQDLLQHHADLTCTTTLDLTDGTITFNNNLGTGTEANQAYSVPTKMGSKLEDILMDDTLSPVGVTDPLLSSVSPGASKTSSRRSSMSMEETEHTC

cells [10] = experiment: cells
[11] = potency of ADAM10 substrate cleavage blockers – biochemical, QFRET, dose response (AID 743254);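 further: ADAM10 enzyme with the DM2 quenched FRET peptide as substrate; EDANS fluorescence gain as the protease cuts the substrate; inhibitor potency against ADAM10 proteolytic activity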
[12] = molecular target: Disintegrin and metalloproteinase domain-containing protein 17 (Homo sapiens, UniProt P78536); experiment: inhibition of ADAM17 substrate cleavage – biochemical, quenched FRET substrate, counter-screen for ADAM10 exosite inhibitor project, dose response (AID 743253)
[13] = molecular target: E3 ubiquitin-protein ligase Mdm2 (Homo sapiens, UniProt Q00987); experiment: MDM2-luc reporter signal enhancers, multi-concentration potency testing, MDM2 ubiquitin-protein ligase inhibitor program, whole-cell format, luminescence detection, 384-well microplate (AID 1394); assay type: functional;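 further: MDM2 E3 inhibitors raise luminescence so EC50 is for signal enhancement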
Protein skinhead-1 = molecular target: T3, Protein skinhead-1 (Caenorhabditis elegans, UniProt P34707); assay type: functional
T3 sequence (P34707 whole entry): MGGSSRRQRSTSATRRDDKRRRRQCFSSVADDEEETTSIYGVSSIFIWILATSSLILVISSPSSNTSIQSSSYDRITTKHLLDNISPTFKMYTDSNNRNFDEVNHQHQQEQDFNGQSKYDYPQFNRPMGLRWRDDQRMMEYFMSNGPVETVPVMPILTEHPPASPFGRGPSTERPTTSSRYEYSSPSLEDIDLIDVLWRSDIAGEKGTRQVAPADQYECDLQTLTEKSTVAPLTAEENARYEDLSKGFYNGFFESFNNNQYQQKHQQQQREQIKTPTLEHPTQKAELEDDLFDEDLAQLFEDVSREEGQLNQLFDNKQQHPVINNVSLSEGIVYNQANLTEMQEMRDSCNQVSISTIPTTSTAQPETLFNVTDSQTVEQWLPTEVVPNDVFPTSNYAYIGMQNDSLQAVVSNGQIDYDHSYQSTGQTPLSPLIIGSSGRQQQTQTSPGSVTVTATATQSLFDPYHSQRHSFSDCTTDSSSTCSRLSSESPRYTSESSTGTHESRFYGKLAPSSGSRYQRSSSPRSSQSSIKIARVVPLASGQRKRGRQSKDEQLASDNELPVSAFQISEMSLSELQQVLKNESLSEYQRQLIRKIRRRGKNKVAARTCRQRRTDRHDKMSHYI

[14] = viability of uninfected HEp-2 cells – cell-based, HTS, cytotoxicity control for RSV inhibitor project, dose response (AID 2410); assay type: functional; conditions: human respiratory syncytial virus
[15] = Luminescence-based cell-based high throughput dose response assay to identify activators of the DAF-12 from the parasite S. stercoralis (ssDAF-12).; assay type: functional
[16] = molecular target: T4, Oxysterols receptor LXR-beta (Homo sapiens, UniProt P55055); experiment: LXR agonists, Gal4 luciferase reporter, dose response, counter-screen for ssDAF-12 agonist project, cell-based, luminescence, HEK293, S. stercoralis campaign (AID 720737); assay type: functional; conditions: read-out: IC50 (the source's name)
T4 sequence (P55055 whole entry): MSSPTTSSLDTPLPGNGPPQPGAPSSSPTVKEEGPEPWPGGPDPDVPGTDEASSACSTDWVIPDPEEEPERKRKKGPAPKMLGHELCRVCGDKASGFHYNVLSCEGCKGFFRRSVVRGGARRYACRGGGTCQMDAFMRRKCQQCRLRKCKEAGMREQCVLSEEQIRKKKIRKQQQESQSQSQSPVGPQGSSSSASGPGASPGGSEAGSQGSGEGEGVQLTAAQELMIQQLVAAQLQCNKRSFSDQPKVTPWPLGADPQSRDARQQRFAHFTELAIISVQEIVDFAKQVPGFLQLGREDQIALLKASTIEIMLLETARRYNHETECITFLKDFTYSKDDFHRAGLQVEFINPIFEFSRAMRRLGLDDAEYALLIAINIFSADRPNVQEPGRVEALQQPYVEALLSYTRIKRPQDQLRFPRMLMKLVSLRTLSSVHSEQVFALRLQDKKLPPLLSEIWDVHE

cells [17] = experiment: cells; remark: listed apart in the source
[18] = molecular target: T4, Oxysterols receptor LXR-beta; assay type: functional, cell-based
[19] = viability loss of HPDE-C7K cells – cell-based, fluorescence, HTS, primary screen (AID 431); assay type: functional; conditions: Homo sapiens
[20] = HPDE-C7 pancreatic duct cell viability loss – fluorescence, HTS (AID 430); assay type: functional, cell-based; conditions: Homo sapiens
Prothrombin = Prothrombin (Homo sapiens, UniProt P00734); experiment: Thrombin 1536 HTS Dose Response Confirmation. [Related pubchem assays: 1046 (Thrombin 1536 HTS; hits were confirmed in this assay)]; assay type: functional

Sequence of Glyceraldehyde-3-phosphate dehydrogenase (P04406 whole entry): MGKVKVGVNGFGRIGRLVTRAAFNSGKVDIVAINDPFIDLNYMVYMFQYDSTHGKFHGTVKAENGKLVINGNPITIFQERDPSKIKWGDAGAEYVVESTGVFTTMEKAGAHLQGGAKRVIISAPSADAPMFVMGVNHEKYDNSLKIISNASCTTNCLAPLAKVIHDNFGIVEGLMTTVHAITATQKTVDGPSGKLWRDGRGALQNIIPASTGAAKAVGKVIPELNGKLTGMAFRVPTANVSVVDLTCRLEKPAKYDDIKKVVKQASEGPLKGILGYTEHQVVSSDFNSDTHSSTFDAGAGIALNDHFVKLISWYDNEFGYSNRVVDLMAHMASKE
Sequence of E3 ubiquitin-protein ligase Mdm2 (Q00987 whole entry): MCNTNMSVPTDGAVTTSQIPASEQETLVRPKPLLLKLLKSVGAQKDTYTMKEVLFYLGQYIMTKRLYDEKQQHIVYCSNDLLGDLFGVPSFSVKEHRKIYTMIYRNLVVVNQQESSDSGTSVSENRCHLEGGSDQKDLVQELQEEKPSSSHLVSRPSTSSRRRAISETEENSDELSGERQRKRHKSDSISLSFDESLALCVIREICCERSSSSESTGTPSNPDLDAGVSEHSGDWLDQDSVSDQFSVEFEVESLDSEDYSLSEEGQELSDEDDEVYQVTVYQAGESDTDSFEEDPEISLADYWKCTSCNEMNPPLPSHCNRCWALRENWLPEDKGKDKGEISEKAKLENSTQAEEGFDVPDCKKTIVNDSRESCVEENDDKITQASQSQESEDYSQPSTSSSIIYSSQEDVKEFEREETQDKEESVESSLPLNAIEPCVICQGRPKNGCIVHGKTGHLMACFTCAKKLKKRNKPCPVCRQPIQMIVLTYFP
Sequence of Disintegrin and metalloproteinase domain-containing protein 17 (P78536 whole entry, the tested form may be a part): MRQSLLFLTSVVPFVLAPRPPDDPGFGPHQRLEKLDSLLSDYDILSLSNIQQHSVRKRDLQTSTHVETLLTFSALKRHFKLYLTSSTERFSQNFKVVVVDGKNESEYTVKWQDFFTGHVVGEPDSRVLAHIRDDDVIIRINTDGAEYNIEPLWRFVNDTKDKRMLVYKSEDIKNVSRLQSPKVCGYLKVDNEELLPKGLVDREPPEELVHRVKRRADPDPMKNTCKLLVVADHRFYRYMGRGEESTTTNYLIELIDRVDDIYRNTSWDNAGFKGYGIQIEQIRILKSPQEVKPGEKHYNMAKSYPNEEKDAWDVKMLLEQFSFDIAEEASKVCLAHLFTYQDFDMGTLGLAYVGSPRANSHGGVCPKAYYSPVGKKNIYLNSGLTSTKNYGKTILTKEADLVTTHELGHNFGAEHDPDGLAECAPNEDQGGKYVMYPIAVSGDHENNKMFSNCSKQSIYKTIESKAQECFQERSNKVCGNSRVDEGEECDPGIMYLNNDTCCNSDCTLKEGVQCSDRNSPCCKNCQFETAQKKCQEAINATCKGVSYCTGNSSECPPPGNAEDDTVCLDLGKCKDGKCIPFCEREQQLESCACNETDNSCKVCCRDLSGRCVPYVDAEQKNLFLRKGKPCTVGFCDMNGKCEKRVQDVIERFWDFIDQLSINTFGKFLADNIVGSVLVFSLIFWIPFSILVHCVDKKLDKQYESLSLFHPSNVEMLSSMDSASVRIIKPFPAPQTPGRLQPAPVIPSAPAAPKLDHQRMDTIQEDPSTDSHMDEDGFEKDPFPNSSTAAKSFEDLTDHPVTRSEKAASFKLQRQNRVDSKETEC

CCCCN1CCN(C2=C(Cl)C(=O)N(c3ccc(Cl)c(Cl)c3)C2=O)CC1
IC50 [1]: > 100 µM (not active)
IC50 (Bcl-2-related protein A1 [2]): 3.28 µM (active)
IC50 (Bcl-2-related protein A1 [3]): 10.5 µM (active)

O=C(O)c1ccc(S(=O)(=O)c2ccc3c(c2)C(=O)N(Cc2ccco2)C3=O)cc1
IC50 [4]: > 100 µM (active)

CCOc1ccc(-[n+]2c(-c3ccc(Br)cc3)cn3c2CCCCC3)cc1
EC50 [5]: < 0.1 µM (active)
AC50 (INS1): 1.07 µM (active)
CC50 [6]: 21.2 µM (active)
EC50 [7]: > 60 µM (not active)
EC50 [8]: > 160 µM (inactive)
AC50 [9]: 3.87 µM (active)
EC50 (cells [10]): 0.073 µM (active)

Cc1ccc(Cl)c(N2C(=O)C(Cl)=C(N3CCOCC3)C2=O)c1Cl
IC50 [1]: > 10 µM (inconclusive)
IC50 (Bcl-2-related protein A1 [2]): > 100 µM (not active)
IC50 (Bcl-2-related protein A1 [3]): > 100 µM (not active)

CN(C)c1ccc(C(CNS(=O)(=O)c2ccc(F)cc2)c2c[nH]c3ccccc23)cc1 (configuration not stated)
IC50 [11]: > 69.5 µM (inactive)
IC50 [12]: > 69.5 µM (inactive)

COC(=O)C1=C(C(=O)OC)[C@@H]2N(C)c3ccc(OC)cc3[C@@]23C[C@@H](C(=O)OC)NC3=N1
EC50 [13]: 1.09 µM (not active)

Cc1cccc(Nc2nc(-c3cccs3)cs2)n1
IC50 (Protein skinhead-1): > 100 µM (inactive)
CC50 [14]: 9.85 µM (active)
IC50 [15]: > 67.5 µM (inactive)
EC50 [16]: > 67.5 µM (inactive)
EC50 (cells [17]): > 67.5 µM (inactive)
EC50 [18]: > 67.5 µM (inactive)

Cc1ccc(C(=O)Nc2cccc(C(=O)NCc3ccccc3)c2)o1
EC50 [19]: 12.4 µM (active)
EC50 [20]: 16.6 µM (active)

CCc1nc(O)c2ccsc2n1
IC50 (Prothrombin): > 50 µM (not active)

COCCNc1nnc(SCC(=O)c2c[nH]c3ccccc23)s1
IC50 (Prothrombin): > 50 µM (not active)
